According to US20240166647A1, “Cereblon Ligands” (THE REGENTS OF THE UNIVERSITY OF MICHIGAN, priority 2021, published 2024):

Molecular target: T1, GST-tagged wild-type human CRBN protein (Homo sapiens, UniProt Q96SW2)
T1 construct: purchased Cisbio 64BDCRBNPEG
Experiment: Cereblon Binding Assay (Cisbio Cereblon Binding Kit, TR-FRET)
Conditions: TR-FRET competition with XL665-labelled Thalidomide, room temperature about 3 hours
Experimental: In some embodiments, the biological assay may involve evaluation of CRBN binding activity, e.g., in Cereblon Binding Kit (Cisbio, #64BDCRBNPEG).
In some embodiments, the cell line is maintained and cultured, e.g., at room temperature for about 3 hours.
In some embodiments, the Fluorescence Resonance Energy Transfer (TR-FRET) measurements of the cell line is recorded and evaluated.
Procedure for Cereblon Binding Assay. The binding to cereblon (CRBN) was determined using the Cereblon Binding Kit (Cisbio, #64BDCRBNPEG) following the manufacturer's instruction. Briefly, serially diluted compounds were incubated with GST-tagged wild-type human CRBN protein, XL665-labelled Thalidomide and Europium Cryptate labelled GST antibody at room temperature for about 3 hours. […] The readings were normalized to the control (0.5%) and the ICso was calculated by nonlinear regression (four parameters sigmoid fitted with variable slope) analysis using the GraphPad Prism 8 software.

T1 sequence (Q96SW2 whole entry): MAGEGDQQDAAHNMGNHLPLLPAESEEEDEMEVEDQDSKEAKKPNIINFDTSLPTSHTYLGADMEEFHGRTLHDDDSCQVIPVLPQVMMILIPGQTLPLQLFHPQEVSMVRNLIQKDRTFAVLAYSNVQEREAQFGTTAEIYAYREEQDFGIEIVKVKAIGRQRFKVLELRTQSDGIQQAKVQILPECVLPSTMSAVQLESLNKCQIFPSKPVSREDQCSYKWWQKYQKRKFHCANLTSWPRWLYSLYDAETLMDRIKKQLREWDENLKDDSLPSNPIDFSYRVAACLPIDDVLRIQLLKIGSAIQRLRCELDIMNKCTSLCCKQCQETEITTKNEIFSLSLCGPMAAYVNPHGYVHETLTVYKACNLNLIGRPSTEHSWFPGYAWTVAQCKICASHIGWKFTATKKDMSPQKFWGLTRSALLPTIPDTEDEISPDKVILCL

| SMILES | IC50 |
| --- | --- |
| O=C1CCC(N2C(=O)c3cc4c(cc3C2=O)CC2(CNC2)C4)C(=O)N1 (stereo not shown) [Example 217] | > 10 µM |
| O=C1CCC(N2Cc3cc4c(cc3C2=O)CC2(CNC2)C4)C(=O)N1 (stereo not shown) [Example 218] | 1 to 10 µM |
| O=C1CCC(N2C(=O)c3ccc4c(c3C2=O)CNC4)C(=O)N1 (stereo not shown) [Example 219] | 1 to 10 µM |
| COc1c2c(cc3c1CN(C1CCC(=O)NC1=O)C3=O)CN(Cc1ccccc1)C2 (stereo not shown) [Example 220] | < 0.5 µM |
| O=C1CCC(N2C(=O)c3cc4c(cc3C2=O)CN(Cc2ccc(F)cc2)CC4)C(=O)N1 (stereo not shown) [Example 221] | 0.5 to 1 µM |
| O=C1CCC(N2Cc3cc4c(cc3C2=O)CN(Cc2ccc(F)cc2)C4)C(=O)N1 (stereo not shown) [Example 222] | < 0.5 µM |
| O=C1CCC(N2C(=O)c3cc4c(cc3C2=O)CCN(Cc2ccc(F)cc2)CC4)C(=O)N1 (stereo not shown) [Example 223] | 1 to 10 µM |
| O=C1CCC(N2C(=O)c3cc4c(cc3C2=O)CN(Cc2cccc3c2OCCO3)C4)C(=O)N1 (stereo not shown) [Example 224] | < 0.5 µM |
| O=C1CCC(N2Cc3cc4c(cc3C2=O)CN(C(=O)c2cccc3c2CCC3)C4)C(=O)N1 (stereo not shown) [Example 225] | < 0.5 µM |
| O=C1CCC(N2Cc3cc4c(cc3C2=O)CN(C(=O)c2cccc3c2OCO3)C4)C(=O)N1 (stereo not shown) [Example 226] | < 0.5 µM |
| O=C1CCC(N2C(=O)c3cc4c(cc3C2=O)CN(Cc2ccc(C(F)(F)F)cc2)CCC4)C(=O)N1 (stereo not shown) [Example 227] | 0.5 to 1 µM |
| O=C1CCC(N2C(=O)c3cc4c(cc3C2=O)CC(CN2CCC(Cc3ccc(F)cc3)CC2)C4)C(=O)N1 (stereo not shown) [Example 228] | < 0.5 µM |
| O=C1CCC(N2C(=O)c3cc4c(cc3C2=O)CC(CN2CC3(CN(Cc5ccc(F)cc5)C3)C2)C4)C(=O)N1 (stereo not shown) [Example 229] | 0.5 to 1 µM |
| O=C1CCC(N2Cc3cc4c(cc3C2=O)CN(C2CN(Cc3ccc(F)c(F)c3)C2)C4=O)C(=O)N1 (stereo not shown) [Example 230] | 0.5 to 1 µM |
| O=C1CCC(N2Cc3cc4c(cc3C2=O)CN(CC2CN(Cc3ccc(F)c(F)c3)C2)C4=O)C(=O)N1 (stereo not shown) [Example 231] | 0.5 to 1 µM |
| CCN1CC(N2Cc3cc4c(cc3C2=O)CN(C2CCC(=O)NC2=O)C4=O)C1 (stereo not shown) [Example 232] | 0.5 to 1 µM |

| SMILES | IC50 |
| --- | --- |
| CC(=O)N1CC(N2Cc3cc4c(cc3C2=O)CN(C2CCC(=O)NC2=O)C4=O)C1 (stereo not shown) [Example 233] | 1 to 10 µM |
| COc1c2c(cc3c1C(=O)N(C1CCC(=O)NC1=O)C3=O)CN(CC1CN(Cc3ccc(F)cc3Cl)C1)C2 (stereo not shown) [Example 234] | 0.5 to 1 µM |
| O=C1CCC(N2Cc3cc4c(cc3C2=O)CC2(C4)CN(Cc3ccc(F)cc3)C2)C(=O)N1 (stereo not shown) [Example 235] | 0.5 to 1 µM |
| O=C(O)CN1Cc2cc3c(cc2C1)C(=O)N(C1CCC(=O)NC1=O)C3=O (stereo not shown) [Example 236] | < 0.5 µM |
| O=C(O)CN1Cc2cc3c(cc2C1)C(=O)N(C1CCC(=O)NC1=O)C3 (stereo not shown) [Example 237] | < 0.5 µM |
| O=C(O)CN1CCc2cc3c(cc2C1)C(=O)N(C1CCC(=O)NC1=O)C3=O (stereo not shown) [Example 238] | 1 to 10 µM |
| O=C(O)CCN1Cc2cc3c(cc2C1)C(=O)N(C1CCC(=O)NC1=O)C3=O (stereo not shown) [Example 239] | < 0.5 µM |
| O=C(O)CCCN1Cc2cc3c(cc2C1)C(=O)N(C1CCC(=O)NC1=O)C3=O (stereo not shown) [Example 240] | < 0.5 µM |
| O=C(O)CCN1CCc2cc3c(cc2C1)C(=O)N(C1CCC(=O)NC1=O)C3=O (stereo not shown) [Example 241] | 0.5 to 1 µM |
| O=C(O)CCCN1CCc2cc3c(cc2C1)C(=O)N(C1CCC(=O)NC1=O)C3=O (stereo not shown) [Example 242] | 1 to 10 µM |
| O=C(O)CN1CCc2cc3c(cc2CC1)C(=O)N(C1CCC(=O)NC1=O)C3=O (stereo not shown) [Example 243] | 0.5 to 1 µM |
| CNC1CCC(N2Cc3cc4c(cc3C2)C(=O)N(C2CCC(=O)NC2=O)C4=O)CC1 (stereo not shown) [Example 244] | < 0.5 µM |
| O=C1CCC(N2C(=O)c3cc4c(cc3C2=O)CN(Cc2ccc(F)nc2)C4)C(=O)N1 (stereo not shown) [Example 245] | < 0.5 µM |
| O=C1CCC(N2C(=O)c3cc4c(cc3C2=O)CN(Cc2cnc(Cl)nc2)C4)C(=O)N1 (stereo not shown) [Example 246] | 1 to 10 µM |
| O=C1CCC(N2Cc3cc4c(cc3C2)C(=O)N(C2CCC(=O)NC2=O)C4=O)CC1 (stereo not shown) [Example 247] | 0.5 to 1 µM |
| NC1CCC(N2Cc3cc4c(cc3C2)C(=O)N(C2CCC(=O)NC2=O)C4=O)CC1 (stereo not shown) [Example 248] | < 0.5 µM |

More lines, now with the values ahead:

| IC50 | SMILES |
| --- | --- |
| 0.5 to 1 µM | O=C1CCC(N2Cc3cc4c(cc3C2)C(=O)N(C2CCC(=O)NC2=O)C4)CC1 (stereo not shown) [Example 249] |
| < 0.5 µM | O=C1CCC(N2C(=O)c3cc4c(cc3C2=O)CN(C(=O)C2CCC3(CCNCC3)CC2)C4)C(=O)N1 (stereo not shown) [Example 250] |
| 0.5 to 1 µM | O=C1CCC(N2C(=O)c3cc4c(cc3C2=O)CN(C2CCC(C(=O)O)CC2)C4)C(=O)N1 (stereo not shown) [Example 251] |
| < 0.5 µM | O=C1CCC(C(=O)N2Cc3cc4c(cc3C2)C(=O)N(C2CCC(=O)NC2=O)C4=O)CC1 (stereo not shown) [Example 252] |
| < 0.5 µM | O=C1CCC(N2C(=O)c3cc4c(cc3C2=O)CN(C(=O)C2CCNCC2)C4)C(=O)N1 (stereo not shown) [Example 253] |
| < 0.5 µM | O=C1CCC(N2Cc3cc4c(cc3C2=O)CN(C(=O)C2CCNCC2)C4)C(=O)N1 (stereo not shown) [Example 254] |
| 1 to 10 µM | O=C1CCC(N2C(=O)c3ccc4c(c3C2=O)CNCC4)C(=O)N1 (stereo not shown) [Example 255] |
| < 0.5 µM | O=C1CCC(N2Cc3cc4c(cc3C2=O)CN(C2CCNCC2)C4=O)C(=O)N1 (stereo not shown) [Example 256] |
| 1 to 10 µM | O=C1CCC(N2C(=O)c3cc4c(cc3C2=O)CCNCC4)C(=O)N1 (stereo not shown) [Example 257] |
| 1 to 10 µM | O=C1CCC(N2C(=O)c3cc4c(cc3C2=O)CNCC4)C(=O)N1 (stereo not shown) [Example 258] |
| 0.5 to 1 µM | O=C1CCC(N2C(=O)c3cc4c(cc3C2=O)CN([C@H]2C[C@H](C(=O)O)C2)C4)C(=O)N1 (stereo partly shown) [Example 259] |
| < 0.5 µM | O=C1CCC(N2C(=O)c3cc4c(cc3C2=O)CN(C2CNC2)C4)C(=O)N1 (stereo not shown) [Example 260] |
| 1 to 10 µM | O=C1CCC(N2C(=O)c3cc4c(cc3C2=O)CN(C2CC3(CCNCC3)C2)C4)C(=O)N1 (stereo not shown) [Example 261] |
| 1 to 10 µM | O=C1CCC(N2C(=O)c3cc4c(cc3C2=O)CN(C2CCCC23CCNCC3)C4)C(=O)N1 (stereo not shown) [Example 262] |
| 0.5 to 1 µM | O=C1CCC(N2Cc3cc4c(cc3C2=O)CN(CC2CCNCC2)C4)C(=O)N1 (stereo not shown) [Example 263] |
| < 0.5 µM | O=C1CCC(N2C(=O)c3cc4c(cc3C2=O)CN(C2CCNC2)C4)C(=O)N1 (stereo not shown) [Example 264] |
| 0.5 to 1 µM | O=C1CCC(N2C(=O)c3cc4c(cc3C2=O)CN(C2CCNCC2)C4)C(=O)N1 (stereo not shown) [Example 265] |
| < 0.5 µM | O=C1CCC(N2C(=O)c3cc4c(cc3C2=O)CN(C2CCC3(CCNCC3)CC2)C4)C(=O)N1 (stereo not shown) [Example 266] |
| 1 to 10 µM | O=C1CCC(N2Cc3cc4c(cc3C2=O)CN(C2CCNCC2)C4)C(=O)N1 (stereo not shown) [Example 267] |
| 0.5 to 1 µM | COC1(CN2Cc3cc4c(cc3C2)C(=O)N(C2CCC(=O)NC2=O)C4=O)CCN(C(=O)OC(C)(C)C)CC1 (stereo not shown) [Example 268] |
| < 0.5 µM | CC1(CN2Cc3cc4c(cc3C2)C(=O)N(C2CCC(=O)NC2=O)C4=O)CCN(C(=O)OC(C)(C)C)CC1 (stereo not shown) [Example 269] |
| 0.5 to 1 µM | CC(C)(C)OC(=O)N1CCC(F)(CN2Cc3cc4c(cc3C2)C(=O)N(C2CCC(=O)NC2=O)C4=O)CC1 (stereo not shown) [Example 270] |
| < 0.5 µM | O=C1CCC(N2C(=O)c3cc4c(cc3C2=O)CN(CC2CN(c3ccc(C(=O)O)cc3)C2)C4)C(=O)N1 (stereo not shown) [Example 271] |
| < 0.5 µM | O=C1CCC(N2C(=O)c3cc4c(cc3C2=O)CN(CC2CCN(c3ccc(C(=O)O)cc3)CC2)C4)C(=O)N1 (stereo not shown) [Example 272] |
| 1 to 10 µM | O=C1CCC(N2Cc3cc4c(cc3C2=O)CNC4)C(=O)N1 (stereo not shown) [Example 274] |
| 0.5 to 1 µM | COc1c2c(cc3c1CN(C1CCC(=O)NC1=O)C3=O)CNC2 (stereo not shown) [Example 275] |
